Marks after values point to notes of the source that are not given here. Peptide text beside a SMILES is read from it.
Assays:
THP1-Dual monocytes = test: THP1-Dual differentiation assay, immX3 peptide plus helper or inhibitor molecule; format: cell-based, human; settings: immX3 peptide (330 nM) in all samples plus helper at the concentration given; immX3 with buffer = 100.0
Description: Mammalian cell differentiation assays using THP1-Dual monocytes reporter cell line (Invivogen Inc, San Diego, CA) seeded at 2×10e5 cells per well in 96-well plates and cultured at 37 degrees C. in RPMI-1640 growth medium plus 10% fetal bovine serum and 1% penicillin/streptomycin, then treated for 24 hours with either 100 ng/ml Phorbol 12-myristate 13-acetate (PMA protocol; Cayman Chemical Company, Ann Arbor, MI) or a mixture of IL-4 (100 ng/ml), GM-CSF (100 ng/ml), TNF-alpha (20 ng/ml) and ionomycin (200 ng/ml) (Cytokine protocol; Peprotech, Rocky Hill, NJ). Peptide (330 nM) was then added, and incubation continued for an additional 24 hours. Culture supernatants were then assayed for CCL22. Plates with adherent cells were washed with PBS and assayed for immunoreactivity of surface markers such as CD169, Clec9a, Clec12a or MHCII using fuorescent tag- or biotin-labeled anti-human antibodies purchased from Miltenyi Biotec (Auburn, CA) and a relevant secondary detection reagent, or by fluorescence counts.
The THP1-Dual cell differentiation assay was carried out as described above in Example 2, using immX3 peptide (330 nM) in all samples plus the indicated helper or inhibitor molecule. AU=arbitrary ELISA units. **p<0.01.

[1] = Ferric iron-binding assay of biotinylated immodulin peptides; settings: N-terminally biotinylated peptide, 400 ng per well, 60 min room temperature; immX3AVD = 100
Text: N-terminally biotinylated versions of the peptides listed below were used in ferric iron-binding assays involving either an Alexa488-labeled streptavidin protocol (Binding Assay 1) or FITC-NTA assay (Binding Assay 2). Fluorescence was standardized to binding with immX3AVD control peptide (100) and the average of multiple experiments using both protocols is shown. P values are shown relative to the control immX3AVD peptide (**<0.05). D-amino acid residues are underlined in the sequences and the extension tripeptide of immX peptides is shown in bold font. Binding Assay 1 was done as follows: NTA coated 96-well plates (G-Biosciences, St. Louis, MO) were charged with ferric chloride and contacted with equimolar biotinylated peptide: streptavidin-A488 complex (400 ng peptide per well) for 60 min at room temperature, washed with phosphate-buffered saline (PBS) and read at 525 nm in a fluorescence counter. Binding Assay 2 was done as follows: Streptavidin coated 96-well plates (G-Biosciences, St. Louis, MO) were contacted with 400 ng peptide per well in PBS buffer for 60 minutes at room temperature, washed in PBS, then contacted with FITC-NTA (TRC, Toronto, Canada) complexed with equimolar ferric chloride (10× molar equivalent per well) for 60 min at room temperature, washed with PBS and read at 525 nm in a fluorescence counter.

[2] = molecular target: T1, AA111-228 DNA-binding domain of RXR-alpha (RXRa-DBD) (Homo sapiens, UniProt P19793); test: Experiment 4A binding to RXRa-DBD; settings: 1 ug/well RXRa-DBD; 800 ng/well SA488-labelled peptide, 60 min; background subtracted
T1 construct: purchased Abcam, Cambridge, MA
T1 sequence (P19793 111-228): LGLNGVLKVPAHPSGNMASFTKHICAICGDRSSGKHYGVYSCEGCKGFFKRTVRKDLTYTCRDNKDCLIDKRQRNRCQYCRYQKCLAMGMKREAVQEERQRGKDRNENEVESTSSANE
Description: Experiment 4A. Binding of immodulin peptides to AA111-228 DNA-binding domain of RXR-alpha (RXRa-DBD). 1 ug/well recombinant RXRa-DBD (Abcam, Cambridge, MA) was adsorbed to wells of a 96-well plate for 60 minutes at room temperature, then blocked with 200 uL 1% bovine serum albumin (BSA) in PBS buffer overnight. Plate was washed and 800 ng/well Streptavidin-Alexa 488 conjugate (SA488)-labelled immX peptide was added. The plate was incubated for 60 min at room temperature, washed and counted in a standard fluorometer (excitation/emission 485/525 nm). Background (buffer alone) was subtracted.

[3] = Experiment 4D binding to FITC-labelled heparin; settings: biotinylated peptide 1 ug/well; 1 ug FITC-labelled heparin, 90 minutes
Description: (§1) Streptavidin-coated 96-well plates (G-Biosciences, St. Louis, MO) were pre-treated with biotinylated peptides [see Example 1 for key] at 1 ug/well, at room temperature for 60 minutes. The plate was washed with PBS buffer and then 1 ug FITC-labelled heparin or hyaluronic acid in 100 uL PBS buffer was added per well (all tests in quadruplicate). Incubation proceeded for 90 minutes at room temperature, followed by two PBS washes. The plate was read in a standard laboratory fluorometer (488/525 nm exitation/[…]) and the counts normalized for immX3 peptide binding=100. Values statistically above background are shown in bold font. **p<0.05 versus immX3AVD.

[4] = Experiment 4D binding to FITC-labelled hyaluronic acid; settings: biotinylated peptide 1 ug/well; 1 ug FITC-labelled hyaluronic acid, 90 minutes
Description: as §1

[5] = system: HFF-1 human fibroblast cell line; test: Collagen-1 ELISA in HFF-1 dermal fibroblasts; format: cell-based; settings: peptide 2 uM, 72 hour incubation
Description: Immodulin peptides have potential untility in the field of cosmetics. HFF-1 human fibroblast cell line was obtained from the American Type Culture Collection (ATCC). Cells were grown in a T-75 flask in DMEM Medium containing 10% fetal bovine serum and penicillin-streptomycin at 37° C. in a humidified, 5% CO2 incubator. Cells (100 µl, 2,000 cells/well) were plated in a 96-well plate and incubated overnight at 37° C. in a humidified, 5% CO2 incubator. Next day, 10 µl/well of compounds were added (quadruplicate wells). After 72 hour incubation with the compound, supernatants were collected for Collagen-1 ELISA assay and cell viability was measured in a luminometer after the addition of 100 IL/well CellTiterGlo reagent (Promega Inc, Madison, WI) as recommended by the manufacturer. Collagen stimulating activity of immodulin peptides in HFF-1 dermal fibroblasts: Peptides were added to cells at 2 uM. COL1 immunoreactivity was measured in the supernatants of cultured cells by ELISA using a rabbit monoclonal anti-COL1 primary antibody (Abcam, Cambridge, MA). Control (buffer) value of immunoreactivity was set to 100.

GM-CSF: granulocyte-macrophage colony-stimulating factor; growth factor class
CD169 (AU) (THP1-Dual monocytes): 147.0 ± 15.3** AU

Transferrin: Fe-binding protein
CD169 (AU) (THP1-Dual monocytes): 126.8 ± 9.3** AU

CSCC[C@H](NC(=O)[C@H](CCCCN)NC(=O)[C@H](CS)NC(=O)[C@H](CCC(N)=O)NC(=O)[C@H](CCCCN)NC(=O)[C@H](CC(C)C)NC(=O)[C@H](CC(N)=O)NC(=O)[C@H](Cc1ccc(O)cc1)NC(=O)[C@H](CC(C)C)NC(=O)CNC(=O)[C@H](Cc1c[nH]cn1)NC(=O)[C@@H](N)CCCCN)C(=O)N[C@@H](CO)C(=O)N[C@@H](CC(C)C)C(=O)N[C@@H](CC(N)=O)C(=O)NCC(=O)N[C@@H](CCC(N)=O)C(=O)N[C@@H](CCCNC(=N)N)C(=O)NCC(=O)N[C@@H](CCC(=O)O)C(=O)N[C@@H](CS)C(=O)N[C@@H](Cc1c[nH]c2ccccc12)C(=O)O [imm2]
Ferric iron binding, fluorescence standardized to immX3AVD control peptide (100), Avg ± SD [1]: 1.6 ± 0.8** | Fluorescence, binding to RXRa-DBD [2]: 2±38 | Heparin binding, counts normalized for immX3 peptide binding=100 [3]: 27.4 ± 22.9 | Hyaluronate binding, counts normalized for immX3 peptide binding=100 [4]: 3.1 ± 9.8 | COL1 immunoreactivity in supernatants, control (buffer) set to 100 [5]: 109

CSCC[C@H](NC(=O)[C@H](CO)NC(=O)[C@@H](NC(=O)[C@H](CCC(=O)O)NC(=O)[C@H](CS)NC(=O)[C@H](CCC(N)=O)NC(=O)[C@H](CCCNC(=N)N)NC(=O)[C@H](CO)NC(=O)[C@H](Cc1c[nH]cn1)NC(=O)[C@H](Cc1ccc(O)cc1)NC(=O)[C@H](Cc1ccccc1)NC(=O)CNC(=O)[C@H](CC(N)=O)NC(=O)[C@@H](N)CCCCN)[C@@H](C)O)C(=O)N[C@@H](CC(=O)O)C(=O)NCC(=O)N[C@@H](CCC(=O)O)C(=O)N[C@@H](C)C(=O)NCC(=O)N[C@@H](CC(C)C)C(=O)N[C@@H](CS)C(=O)N[C@@H](Cc1c[nH]c2ccccc12)C(=O)O [imm1] (H-KNGFYHSRQCETSMDGEAGLCW-OH; N-terminus and C-terminus assumed)
Ferric iron binding, fluorescence standardized to immX3AVD control peptide (100), Avg ± SD [1]: 2.5 ± 1.6** | Fluorescence, binding to RXRa-DBD [2]: 670±85 | COL1 immunoreactivity in supernatants, control (buffer) set to 100 [5]: 98

Leptin: Growth factor class
CD169 (AU) (THP1-Dual monocytes): 103.3 ± 11.6 AU

Hyaluronic acid [reference compound]
CD169 (AU) (THP1-Dual monocytes): 110.5 ± 10.2 AU

B1: CSF1: colony stimulating factor 1; growth factor class (protein, UniProt P09603 33-554, looked up)
Macrophage colony-stimulating …: EEVSEYCSHMIGSGHLQSLQRLIDSQMETSCQITFEFVDQEQLKDPVCYLKKAFLLVQDIMEDTMRFRDNTPNAIAIVQLQELSLRLKSCFTKDYEEHDKACVRTFYETPLQLLEKVKNVFNETKNLLDKDWNIFSKNCNNSFAECSSQDVVTKPDCNCLYPKAIPSSDPASVSPHQPLAPSMAPVAGLTWEDSEGTEGSSLLPGEQPLHTVDPGSAKQRPPRSTCQSFEPPETPVVKDSTIGGSPQPRPSVGAFNPGMEDILDSAMGTNWVPEEASGEASEIPVPQGTELSPSRPGGGSMQTEPARPSNFLSASSPLPASAKGQQPADVTGTALPRVGPVRPTGQDWNHTPQKTDHPSALLRDPPEPGSPRISSLRPQGLSNPSTLSAQPQLSRSHSSGSVLPLGELEGRRSTRDRRSPAEPEGGPASEGAARPLPRFNSVPLTDTGHERQSEGSFSPQLQESVFHLLVPSVILVLLAVGGLLFYRWRRRSHQEPQRADSPLEQPEGSPLTQDDRQVELPV
CD169 (AU) (THP1-Dual monocytes): 108.0 ± 32.3 AU
